The target of one test is T1, αIIbβ3 integrin (Homo sapiens, UniProt P05106+P08514).
T1 construct: from tissue; host or cells: human platelets (Triton X-100 lysate)
The test can be described thus: Assay for the inhibition of αIIbβ3 integrin binding (fibrinogen as ligand, integrin captured from platelet lysate). The following applies: inhibition of specific binding of biotinylated fibrinogen to αIIbβ3 integrin from human platelet lysate. The method, then: Experiment 2: Assay for the Inhibition of αIIbβ3 Integrin Binding
This experiment was carried out based on the method described in Thromb. Haemostasis, 75, 339 (1996), Blood, 93, 2559 (1999), using fibrinogen as a ligand. According to the method described in the above literatures, assay for the inhibition of αIIbβ3 integrin binding can be achieved by capturing αIIbβ3 integrin from platelet lysate with the use of an activated antibody against αIIbβ3 integrin.
Human platelets were isolated in a conventional manner. At 25° C., the isolated platelets were adjusted to a concentration of 1.25×10^9/ml with TBS+[50 mM Tris-HCl (pH 7.4), 150 mM NaCl, 2 mM CaCl2], and then ⅛ volume of TBS^+ containing 2 mM leupepsin and 10 mM PMSF was added and stirred gently. Nest, 1/9 volume of TBS+ containing 10% Triton X-100 was added and stirred gently. After standing on ice for 30 minutes, a platelet lysate was prepared from the mixture by discarding the insoluble fraction with centrifugation (10,000 g, 15 minutes).
Anti-mouse IgG goat antibody (Jackson Immunoresearch Laboratories, Inc., USA) was adjusted to a concentration of 5 μg/ml with sodium carbonate buffer (pH 9.6) and added to plates at 50 μl/well. The plate was left at 4° C. overnight for immobilization of the antibody. All subsequent steps were done at 25° C., and the procedure for each well was described hereafter.
The well was washed once with TBS^+, and then 200 μl of TBS^+ containing 5% BSA was added to the well and left for one hour for blocking. The well was washed with a reaction solution (TBS^+ containing 0.1% BSA and 0.05% Triton X-100) 4 times, and then 50 μl of anti-human αIIbβ3 integrin activated monoclonal antibody (TAKARA SHUZO CO., LTD, Japan, PT25-2 strain) adjusted to 5 μg/ml with the reaction solution was added to the well. After one hour reaction, the well was washed 4 times with the reaction solution, and 50 μl of the platelet lysate diluted 1:2 with the reaction solution was added to the well. Following 2 hours reaction, the well was washed 4 times with the reaction solution, and 50 μl of the reaction solution was added to the well. Subsequently, 25 μl of a test compound solution adjusted to each concentration with the reaction solution was added, and then mixed with 25 μl of biotinylated fibrinogen (Calbiochem, Germany) adjusted to 2 μg/ml with the reaction solution. The mixture was reacted for one hour. After washing 4 times with the reaction solution, 100 μl of alkaline phosphatase-labeled streptoavidin (Gibco BRL, USA) diluted 1:500 with the reaction solution was added to the well. Following 30 minutes reaction, the well was washed 4 times with the wash solution. Next, 50 μl of the NaDPH solution (Invitrogen, former company name: Gibco BRL, USA) was added and reacted for 20 minutes, and then 50 μl of an amplification solution containing diaphorase and alcohol dehydrogenase (Invitrogen, former company name: Gibco BRL, USA) was added. Color was developed for 20 minutes and the reaction was stopped by adding 50 μl of 0.5 M sulfuric acid.
The absorbance at 495 nm was measured with a plate reader to obtain a total binding. To obtain a nonspecific binding, EDTA adjusted to 20 mM with the reaction solution was added instead of the test compound solution. A specific binding was calculated by subtracting the nonspecific binding from the total binding.

A further test has as its target αvβ3 integrin (Homo sapiens, UniProt P05106+P06756). The test can be described thus: Assay for the inhibition of αvβ3 integrin binding (vitronectin as ligand). Further details: purchased Chemicon International, Inc., USA. The settings on record: inhibition of specific binding of biotinylated human vitronectin to immobilized αvβ3 integrin. On the procedure:
Experiment 1: Assay for the Inhibition of αvβ3 integrin binding
This experiment was carried out based on the method described in […].
Purified human αvβ3 integrin (Chemicon International, Inc., USA) was adjusted to a concentration of 1 μg/ml with TBS^++ [20 mM Tris-HCl (pH 7.4), 150 mM NaCl, 1 mM CaCl2, 1 mM MgCl2], and the diluted solution was added to plates (Labsystems, Finland) at 50 μl/well. The plate was left at 4° C. overnight for immobilization of the αvβ3 integrin. All subsequent steps were done at 25° C., and the procedure for each well was described hereafter.
The solution was discarded, and then 200 μl of TBS^++ containing 1% BSA (Wako Pure Chemical Industries, Ltd., Japan) was added to the well and left for one hour for blocking. The well was washed with a wash solution (TBS^++ containing 0.01% Tween 20) 4 times, and 50 μl of a reaction solution (TBS^++ containing 0.1% BSA and 0.01% Tween 20) was added to the well. Subsequently, 25 μl of a test compound solution adjusted to each concentration with the reaction solution was added, and then mixed with 25 μl of biotinylated (Amersham Pharmacia Biotech, UK) human vitronectin (Gibco BRL, USA) adjusted to 0.4 μg/ml with the reaction solution. The mixture was reacted for 2 hours. After washing 4 times with the wash solution, 100 μl of peroxidase-labeled streptoavidin (Amersham Pharmacia Biotech, UK) diluted 1:500 with the reaction solution was added to the well. Following 30 minutes reaction, the well was washed 4 times with the wash solution, and 100 μl of a TMB substrate solution (Bio-Rad Laboratories, USA) was added to the well. Color was developed for 20 minutes and the reaction was stopped by adding 100 μl of 0.5 M sulfuric acid.
The absorbance at 450 nm was measured with a plate reader (Molecular Devices, USA) to obtain a total binding. To obtain a nonspecific binding, EDTA adjusted to 20 mM with the reaction solution was added instead of the test compound solution. A specific binding was calculated by subtracting the nonspecific binding from the total binding.

T1 sequence (P08514 32-887 limits assumed): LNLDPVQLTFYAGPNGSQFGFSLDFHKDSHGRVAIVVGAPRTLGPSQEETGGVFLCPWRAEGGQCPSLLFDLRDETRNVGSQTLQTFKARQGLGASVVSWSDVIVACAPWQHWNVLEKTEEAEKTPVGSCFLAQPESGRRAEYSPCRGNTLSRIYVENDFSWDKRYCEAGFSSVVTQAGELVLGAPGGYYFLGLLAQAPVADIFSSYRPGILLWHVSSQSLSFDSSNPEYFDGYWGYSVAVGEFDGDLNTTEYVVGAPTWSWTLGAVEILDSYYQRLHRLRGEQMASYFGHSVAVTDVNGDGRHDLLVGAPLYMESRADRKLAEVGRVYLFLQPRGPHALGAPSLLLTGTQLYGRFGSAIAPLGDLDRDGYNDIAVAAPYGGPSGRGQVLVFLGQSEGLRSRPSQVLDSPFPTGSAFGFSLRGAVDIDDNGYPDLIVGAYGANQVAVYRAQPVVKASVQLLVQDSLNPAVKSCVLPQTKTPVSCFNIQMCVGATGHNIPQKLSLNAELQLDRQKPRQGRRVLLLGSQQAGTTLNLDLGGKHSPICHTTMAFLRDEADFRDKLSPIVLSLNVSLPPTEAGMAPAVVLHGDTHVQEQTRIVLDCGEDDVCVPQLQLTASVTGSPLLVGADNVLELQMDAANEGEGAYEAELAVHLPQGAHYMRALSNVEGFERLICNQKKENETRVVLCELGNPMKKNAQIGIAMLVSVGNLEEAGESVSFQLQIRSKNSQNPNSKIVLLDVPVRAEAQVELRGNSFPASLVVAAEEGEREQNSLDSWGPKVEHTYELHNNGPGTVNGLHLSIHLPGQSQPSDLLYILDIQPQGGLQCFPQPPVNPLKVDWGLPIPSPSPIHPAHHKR
T1 sequence (P08514 891-1039 partner limits assumed): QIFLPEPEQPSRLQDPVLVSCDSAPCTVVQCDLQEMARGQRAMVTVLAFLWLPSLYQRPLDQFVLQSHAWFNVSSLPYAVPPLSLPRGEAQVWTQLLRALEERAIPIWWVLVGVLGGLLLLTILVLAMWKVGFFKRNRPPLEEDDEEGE
T1 sequence (P05106 27-788): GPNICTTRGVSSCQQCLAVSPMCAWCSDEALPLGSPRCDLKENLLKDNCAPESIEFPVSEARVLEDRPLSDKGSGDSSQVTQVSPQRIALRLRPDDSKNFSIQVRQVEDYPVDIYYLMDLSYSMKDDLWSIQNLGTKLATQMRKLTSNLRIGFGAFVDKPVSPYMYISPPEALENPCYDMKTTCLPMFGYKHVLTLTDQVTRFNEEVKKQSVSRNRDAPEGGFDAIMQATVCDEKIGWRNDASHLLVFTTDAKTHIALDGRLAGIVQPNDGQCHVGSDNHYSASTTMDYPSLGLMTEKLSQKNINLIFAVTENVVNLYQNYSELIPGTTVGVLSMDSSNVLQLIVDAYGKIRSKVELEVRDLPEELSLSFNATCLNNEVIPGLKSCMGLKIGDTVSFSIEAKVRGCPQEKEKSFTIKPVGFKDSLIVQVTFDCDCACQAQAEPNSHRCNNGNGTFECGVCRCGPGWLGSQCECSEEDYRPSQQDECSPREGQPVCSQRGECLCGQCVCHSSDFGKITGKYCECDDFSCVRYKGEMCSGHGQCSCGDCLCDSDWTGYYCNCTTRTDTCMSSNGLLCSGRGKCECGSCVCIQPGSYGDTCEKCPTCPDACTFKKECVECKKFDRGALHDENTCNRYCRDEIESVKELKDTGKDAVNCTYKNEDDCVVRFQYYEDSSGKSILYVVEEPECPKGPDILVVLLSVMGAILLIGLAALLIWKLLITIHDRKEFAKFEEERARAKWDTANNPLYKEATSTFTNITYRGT
Sequence of αvβ3 integrin (P06756 31-889 limits assumed): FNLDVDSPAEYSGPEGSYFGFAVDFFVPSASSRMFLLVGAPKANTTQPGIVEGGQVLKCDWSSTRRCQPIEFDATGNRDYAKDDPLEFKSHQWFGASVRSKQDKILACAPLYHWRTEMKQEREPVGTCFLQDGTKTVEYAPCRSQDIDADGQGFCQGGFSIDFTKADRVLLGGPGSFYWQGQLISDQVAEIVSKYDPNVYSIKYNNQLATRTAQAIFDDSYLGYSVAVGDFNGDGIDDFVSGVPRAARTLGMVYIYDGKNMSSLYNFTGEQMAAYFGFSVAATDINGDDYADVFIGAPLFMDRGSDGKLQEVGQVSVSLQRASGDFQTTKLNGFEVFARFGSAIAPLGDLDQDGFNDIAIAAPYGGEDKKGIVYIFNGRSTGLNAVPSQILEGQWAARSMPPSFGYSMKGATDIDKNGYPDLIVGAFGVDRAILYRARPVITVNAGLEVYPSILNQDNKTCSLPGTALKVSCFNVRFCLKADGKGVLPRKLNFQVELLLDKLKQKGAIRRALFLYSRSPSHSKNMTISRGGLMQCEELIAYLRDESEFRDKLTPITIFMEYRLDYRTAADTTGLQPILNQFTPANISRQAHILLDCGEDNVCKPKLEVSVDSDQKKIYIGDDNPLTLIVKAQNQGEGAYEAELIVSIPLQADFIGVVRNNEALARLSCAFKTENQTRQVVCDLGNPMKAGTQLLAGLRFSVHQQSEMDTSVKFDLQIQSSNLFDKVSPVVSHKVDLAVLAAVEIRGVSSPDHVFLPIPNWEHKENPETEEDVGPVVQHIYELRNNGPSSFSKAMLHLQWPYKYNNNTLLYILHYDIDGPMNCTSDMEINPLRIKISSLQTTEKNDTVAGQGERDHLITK
Sequence of αvβ3 integrin (P06756 891-1048 partner limits assumed): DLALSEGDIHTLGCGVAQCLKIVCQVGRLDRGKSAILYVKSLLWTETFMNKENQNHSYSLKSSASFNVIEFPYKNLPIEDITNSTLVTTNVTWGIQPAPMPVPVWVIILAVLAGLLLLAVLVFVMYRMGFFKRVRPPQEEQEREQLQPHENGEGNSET
Sequence of αvβ3 integrin (P05106 27-788): as the sequence (P05106 27-788) above

In general, IC50 refers to the concentration at which inhibition is half-maximal. Read a low IC50 as higher potency. On to `O=C(N[C@@H](CNC(=O)C1CCN(c2cccc(NC3=NCCCN3)c2)CC1)C(=O)O)OCc1ccccc1` [Ex. 2, (2S)-2-benzyloxycarbonylamino-3-[[1-[3-(1,4,5,6-tetrahydropyrimidin-2-yl)aminophenyl]piperidin-4-yl]carbonylamino]propanoic acid], for which the IC50 on αIIbβ3 integrin is 43 nM; on αvβ3 integrin, 0.06 nM.
The corresponding values for `O=C(N[C@@H](CCC(=O)N1CCN(c2cccc(NC3=NCCCCN3)c2)CC1)C(=O)O)OCc1ccccc1` [Ex. 123] are 1600 nM and 0.056 nM.
The corresponding values for `O=C(N[C@@H](CCC(=O)N1CCN(c2cccc(NC3=NCC(F)CN3)c2)CC1)C(=O)O)OCc1ccccc1` (stereo partly drawn) [Ex. 124, (2S)-2-benzyloxycarbonylamino-5-[4-[3-(5-fluoro-1,4,5,6-tetrahydropyrimidin-2-yl)aminophenyl]piperazin-1-yl]-5-oxopentanoic acid] are 540 nM and 0.063 nM.
The like results for `O=C(N[C@@H](CCC(=O)N1CCN(c2cc(F)cc(NC3=NCCCN3)c2)CC1)C(=O)O)OCc1ccccc1` [Ex. 158, (2S)-2-benzyloxycarbonylamino-5-[4-[5-fluoro-3-(1,4,5,6-tetrahydropyrimidin-2-yl)aminophenyl]piperazin-1-yl]-5-oxopentanoic acid] were, in that order, 750 nM and 0.14 nM.
For the compound `CC(C)COC(=O)N[C@@H](CNC(=O)C1CCN(c2cccc(NC3=NCCCN3)c2)CC1)C(=O)O` [Ex. 92, (2S)-2-isobutoxycarbonylamino-3-[[1-[3-(1,4,5,6-tetrahydropyrimidin-2-yl)aminophenyl]piperidin-4-yl]carbonylamino]propanoic acid], the half-maximal inhibitory concentration (IC50) is 72 nM at αIIbβ3 integrin and 0.066 nM on αvβ3 integrin.
The corresponding values for `O=C(N[C@@H](CNC(=O)N1CCN(c2cccc(NC3=NCCCN3)c2)CC1)C(=O)O)OCc1ccccc1` [Ex. 145, (2S)-2-benzyloxycarbonylamino-3-[[4-[3-(1,4,5,6-tetrahydropyrimidin-2-yl)aminophenyl]piperazin-1-yl]carbonylamino]-propanoic acid] are 380 nM and 0.041 nM.
The corresponding values for `Cc1cc(C)c(S(=O)(=O)N[C@@H](CCC(=O)N2CCN(c3cccc(NC4=NCCCN4)c3)CC2)C(=O)O)c(C)c1` [Ex. 140] are 30 nM and 0.22 nM.
The corresponding values for `COc1ccc(NC2=NCCCN2)cc1N1CCN(C(=O)CC[C@H](NC(=O)OCc2ccccc2)C(=O)O)CC1` [Ex. 154, (2S)-2-benzyloxycarbonylamino-5-[4-[2-methoxy-5-(1,4,5,6-tetrahydropyrimidin-2-yl)aminophenyl]piperazin-1-yl]-5-oxopentanoic acid] are 530 nM and 0.096 nM.
On to `CCCCCCCCCCOC(=O)N[C@@H](CCC(=O)N1CCN(c2cccc(NC3=NCC(O)CN3)c2)CC1)C(=O)O` (some centres unmarked) [Ex. 134], for which the IC50 on αIIbβ3 integrin was above 1000 nM; at αvβ3 integrin it was 0.64 nM.
The like results for `O=C(N[C@@H](CCC(=O)N1CCN(c2cccc(NC3=NCC(O)CN3)c2)CC1)C(=O)O)OCc1ccccc1` (some centres unmarked) [Ex. 125] were, in that order, 340 nM and 0.15 nM.
The like results for `CCCCOC(=O)N[C@@H](CNC(=O)C1CCN(c2cccc(NC3=NCCCN3)c2)CC1)C(=O)O` [Ex. 87, (2S)-2-butoxycarbonylamino-3-[[1-[3-(1,4,5,6-tetrahydropyrimidin-2-yl)aminophenyl]piperidin-4-yl]carbonylamino]propanoic acid] were, in that order, 110 nM and 0.1 nM.
On to `O=C(N[C@@H](CCC(=O)N1CCN(c2cccc(NC3=NCCN3)c2)CC1)C(=O)O)OCc1ccccc1` [Ex. 122], for which the half-maximal inhibitory concentration (IC50) on αIIbβ3 integrin came out at 720 nM; at αvβ3 integrin, 0.16 nM.
The like results for `CN(C[C@H](NC(=O)OCc1ccccc1)C(=O)O)C(=O)C1CCN(c2cccc(NC3=NCCCN3)c2)CC1` [Ex. 162, (2S)-2-benzyloxycarbonylamino-3-[[1-[3-(1,4,5,6-tetrahydropyrimidin-2-yl)aminophenyl]piperidin-4-yl]-N-methylcarbonylamino]propanoic acid] were, in that order, above 1000 nM and 0.21 nM.

These data come from patent US7176199B2, “Aryl-substituted alicyclic compound and medical composition comprising the same” (Dainippon Pharmaceutical Co., Ltd., priority 2001, dated 2007).
